From PubChem BioAssay (NCI)
Several values for one entry are separate records, joined by “and”; a condition that tells them apart may be missing. Identical values can stand only once.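 Where inhibition never reached the appropriate level, the endpoint shown equals the highest concentration tested. Otherwise, values were interpolated linearly from a five-concentration, 48-hour dose response in 96-well plates. GI50 is the concentration that inhibits growth by half. At the TGI there is no net growth.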

Assays:
Assay in all cases: inhibition of tumour cell growth, NCI panel, 48 h
MDA-MB-468 breast = test system: MDA-MB-468 breast
ACHN renal = test system: ACHN renal
EKVX NSCLC = test system: EKVX NSCLC
MCF7 breast = test system: MCF7 breast
OVCAR-4 ovarian = test system: OVCAR-4 ovarian
A498 renal = test system: A498 renal
OVCAR-3 ovarian = test system: OVCAR-3 ovarian
HL-60(TB) leukemia = test system: HL-60(TB) leukemia
MOLT-4 leukemia = test system: MOLT-4 leukemia
786-0 renal = test system: 786-0 renal
TK-10 renal = test system: TK-10 renal
HCT-15 colon = test system: HCT-15 colon
DU-145 prostate = test system: DU-145 prostate
CCRF-CEM leukemia = test system: CCRF-CEM leukemia
SK-MEL-2 melanoma = test system: SK-MEL-2 melanoma
HCC-2998 colon = test system: HCC-2998 colon
SNB-19 CNS = test system: SNB-19 CNS
NCI-H23 lung = test system: NCI-H23 lung
RPMI-8226 leukemia = test system: RPMI-8226 leukemia
RXF 393 renal = test system: RXF 393 renal
BT-549 breast = test system: BT-549 breast

Compound: CC(=O)c1nc(-c2ccc(C[C@@H](CNC(=O)CN(C)C)NC(=O)c3ccc(OC(C)C)c(Cl)c3)cc2)cn1C
- GI50 (MDA-MB-468 breast): 0.0399 µM
- TGI (MDA-MB-468 breast): 14.3 µM

Compound: CCCCC[C@H]1C/C=C2/C(=O)C=C[C@@H]2C/C=C\CCCC(=O)O1
- GI50 (MDA-MB-468 breast): 0.134 µM
- TGI (MDA-MB-468 breast): 0.577 µM

Compound: CCS(=O)(=O)c1cccc(-c2cc(C(=O)NC3CCN(C)CC3)c(C)c3[nH]c4ncc(C)cc4c23)c1
- GI50 (MDA-MB-468 breast): 0.192 µM and 0.0869 µM
- TGI (MDA-MB-468 breast): 2.69 µM and 0.47 µM

Compound: COc1cc(C2CC(c3ccc(Cl)cc3)=NN2C(C)=O)ccc1Oc1ccnc2cc(Cl)ccc12 (configuration not stated)
- GI50 (MDA-MB-468 breast): 4.22 µM
- TGI (MDA-MB-468 breast): > 100 µM

Compound: COc1ccc2nc(Nc3cccc(NC(=O)c4ccc(CN5CCCN(C)CC5)c(C(F)(F)F)c4)c3)ccc2c1
- GI50 (ACHN renal): 0.171 µM
- TGI (ACHN renal): 0.308 µM
- GI50 (EKVX NSCLC): 0.167 µM
- TGI (EKVX NSCLC): 0.307 µM
- GI50 (MCF7 breast): 0.121 µM
- TGI (MCF7 breast): 0.261 µM
- GI50 (OVCAR-4 ovarian): 0.171 µM
- TGI (OVCAR-4 ovarian): 0.34 µM
- GI50 (A498 renal): 0.177 µM
- TGI (A498 renal): 0.325 µM
- GI50 (OVCAR-3 ovarian): 0.177 µM
- TGI (OVCAR-3 ovarian): 0.334 µM
- GI50 (HL-60(TB) leukemia): 0.189 µM
- TGI (HL-60(TB) leukemia): 0.438 µM
- GI50 (MOLT-4 leukemia): 0.102 µM
- TGI (MOLT-4 leukemia): 0.352 µM
- GI50 (786-0 renal): 0.169 µM
- TGI (786-0 renal): 0.309 µM
- GI50 (TK-10 renal): 0.179 µM
- TGI (TK-10 renal): 0.318 µM
- GI50 (HCT-15 colon): 0.0511 µM
- TGI (HCT-15 colon): 0.17 µM
- GI50 (MDA-MB-468 breast): 0.125 µM
- TGI (MDA-MB-468 breast): 0.256 µM
- GI50 (DU-145 prostate): 0.171 µM
- TGI (DU-145 prostate): 0.316 µM
- GI50 (CCRF-CEM leukemia): 0.173 µM
- TGI (CCRF-CEM leukemia): 0.531 µM
- GI50 (SK-MEL-2 melanoma): 0.175 µM
- TGI (SK-MEL-2 melanoma): 0.315 µM
- GI50 (HCC-2998 colon): 0.175 µM
- TGI (HCC-2998 colon): 0.313 µM
- GI50 (SNB-19 CNS): 0.173 µM
- TGI (SNB-19 CNS): 0.313 µM
- GI50 (NCI-H23 lung): 0.148 µM
- TGI (NCI-H23 lung): 0.282 µM
- GI50 (RPMI-8226 leukemia): 0.176 µM
- TGI (RPMI-8226 leukemia): 0.456 µM
- GI50 (RXF 393 renal): 0.134 µM
- TGI (RXF 393 renal): 0.267 µM
- GI50 (BT-549 breast): 0.16 µM
- TGI (BT-549 breast): 0.297 µM

Compound: O=C(NCc1cn(Cc2cccc(Oc3ccccc3)c2)nn1)c1cccnc1NCc1ccc(Cl)cc1
- GI50 (MDA-MB-468 breast): 3.44 µM
- TGI (MDA-MB-468 breast): > 100 µM

Compound: C/C(=N\NC(=S)N1CCCC1)c1ccccn1
- GI50 (MDA-MB-468 breast): < 0.01 µM
- TGI (MDA-MB-468 breast): 0.0801 µM

Compound: CCN(CC)c1ccc(/C=N/N=C(N)N)cc1
- GI50 (MDA-MB-468 breast): 1.88 µM
- TGI (MDA-MB-468 breast): 6.61 µM

Compound: CSCc1ncc(-c2ccc(C(F)(F)F)cc2)c(NC2CCCCCC2)n1
- GI50 (MDA-MB-468 breast): > 10 µM
- TGI (MDA-MB-468 breast): > 10 µM

Compound: CCC(=C(c1ccc(OCCN2CCCCCC2)cc1)c1ccc(OCCN2CCCCCC2)cc1)c1ccc(Cl)cc1
- GI50 (MDA-MB-468 breast): 0.656 µM
- TGI (MDA-MB-468 breast): 1.49 µM

Compound: C=C1C(=O)O[C@@H]2C[C@@H](C)[C@@H]3C=CC(=O)[C@@]3(C)[C@@H](OC(=O)CCCC(=O)O[C@H]3[C@@H]4C(=C)C(=O)O[C@@H]4C[C@@H](C)[C@@H]4C=CC(=O)[C@]43C)[C@H]12
- GI50 (MDA-MB-468 breast): 0.0143 µM
- TGI (MDA-MB-468 breast): 0.0328 µM

Compound: COC(=O)N[C@@H](C)CNc1nccc(-c2cn(C(C)C)nc2-c2cc(Cl)cc(NS(C)(=O)=O)c2F)n1
- GI50 (MDA-MB-468 breast): 24.8 µM
- TGI (MDA-MB-468 breast): > 100 µM

Compound: N#C/C(=C/C=C/c1cccc(Cl)c1)S(=O)c1ccccc1 (configuration not stated)
- GI50 (MDA-MB-468 breast): 0.258 µM
- TGI (MDA-MB-468 breast): 0.758 µM

Compound: Cc1cc(C)c(-c2c(O)c(Br)c(-c3c(C)cc(C)c(Br)c3C)c(O)c2Br)c(C)c1Br
- GI50 (MDA-MB-468 breast): 2.83 µM
- TGI (MDA-MB-468 breast): 11.1 µM

Compound: COc1ccc(C2C3=C(COC3=O)Oc3cc4c(cc32)OCO4)cc1OC (configuration not stated)
- GI50 (MDA-MB-468 breast): 4.7 µM
- TGI (MDA-MB-468 breast): > 100 µM

Compound: COc1ccc(C(=O)c2ccccc2)c(O)c1
- GI50 (MDA-MB-468 breast): 40 µM
- TGI (MDA-MB-468 breast): > 100 µM

Compound: CN(Cc1cnc2nc(N)nc(N)c2n1)c1c(Cl)cc(C(=O)NC(CCC(=O)O)C(=O)O)cc1Cl (configuration not stated)
- GI50 (MDA-MB-468 breast): < 0.0211 µM

Compound: CN(C)CCN=c1nc2c(c(N)n1-c1ccccc1)c(=S)n(-c1ccccc1)c(=S)n2-c1ccccc1
- GI50 (MDA-MB-468 breast): 1.36 µM
- TGI (MDA-MB-468 breast): 3.02 µM

Compound: CN(CCOc1ccc(NS(C)(=O)=O)cc1)CCc1ccc(NS(C)(=O)=O)cc1
- GI50 (MDA-MB-468 breast): > 100 µM
- TGI (MDA-MB-468 breast): > 100 µM

Compound: COc1ccc(/C=C(\C#N)c2cc(OC)c(OC)c(OC)c2)cc1
- GI50 (MDA-MB-468 breast): 0.0222 µM
- TGI (MDA-MB-468 breast): 2.52 µM

Compound: CCOC(=O)/C=C/c1ccc([N+](=O)[O-])o1
- GI50 (MDA-MB-468 breast): 3.76 µM
- TGI (MDA-MB-468 breast): 17.5 µM

Compound: CCCCS(=O)(=O)c1cc(Nc2ccc(O)c3c2C(=O)c2ccccc2C3=O)ccc1C
- GI50 (MDA-MB-468 breast): 88.3 µM
- TGI (MDA-MB-468 breast): > 100 µM

Compound: COc1cccc(C2C(C#N)=C(N)Oc3cc(OCCCCCC[P+](c4ccccc4)(c4ccccc4)c4ccccc4)ccc32)c1 (configuration not stated)
- GI50 (MDA-MB-468 breast): 0.222 µM
- TGI (MDA-MB-468 breast): 0.611 µM

Compound: Cn1cc(-c2csc(-c3ccc(Cl)cc3)n2)c2cccnc21
- GI50 (MDA-MB-468 breast): 10.5 µM
- TGI (MDA-MB-468 breast): 31.1 µM

Compound: COc1ccc(C2=NNC(c3sc(Cl)nc3Cl)C2)cc1 (configuration not stated)
- GI50 (MDA-MB-468 breast): 2.6 µM
- TGI (MDA-MB-468 breast): 8.19 µM

Compound: COc1ccc(N=c2nc3sc4cc(Cl)ccc4n3c(N)c2C#N)cc1
- GI50 (MDA-MB-468 breast): 1.11 µM
- TGI (MDA-MB-468 breast): 19.7 µM

Compound: COc1ccc2c(c1)[n+](=O)c(/C=C/C(=O)c1cc(OC)c(OC)c(OC)c1)c(C)n2[O-]
- GI50 (MDA-MB-468 breast): 3.16 µM
- TGI (MDA-MB-468 breast): 18 µM

Compound: CCOc1ccc2cc(-c3nn(CC4CCN(C)CC4)c4ncnc(N)c34)ccc2c1
- GI50 (MDA-MB-468 breast): 14.5 µM
- TGI (MDA-MB-468 breast): 32.2 µM

Compound: COc1ccc(CN2c3ccccc3Sc3ccccc32)cc1O
- GI50 (MDA-MB-468 breast): 0.531 µM
- TGI (MDA-MB-468 breast): 12.3 µM

Compound: CCOC(=O)c1sc(NC(=O)COc2ccc(/C=C3\CCc4cc(OC)ccc4C3=O)cc2)nc1C
- GI50 (MDA-MB-468 breast): 1.73 µM
- TGI (MDA-MB-468 breast): 7.2 µM

Compound: COc1cc(N)c(Cl)cc1C(=O)N[C@@H]1CCN(CCCOc2ccc(F)cc2)C[C@@H]1OC
- GI50 (MDA-MB-468 breast): 89.4 µM
- TGI (MDA-MB-468 breast): > 100 µM

Compound: O=C(O)C(Cc1ccccc1)N1C(=O)/C(=C/C(Cl)=C/c2ccc([N+](=O)[O-])cc2)SC1=S (configuration not stated)
- GI50 (MDA-MB-468 breast): 1.39 µM
- TGI (MDA-MB-468 breast): 3.28 µM

Compound: CC(C)(O)c1cc(Nc2cc(Oc3cn(C4CC4)nc3C3CCOCC3)ccn2)ccn1
- GI50 (MDA-MB-468 breast): 30.6 µM
- TGI (MDA-MB-468 breast): > 100 µM

Compound: Fc1ccc(-c2ncn(C3CCNCC3)c2-c2ccnc(Oc3ccc(Cl)cc3)n2)cc1
- GI50 (MDA-MB-468 breast): 1.78 µM
- TGI (MDA-MB-468 breast): 5.36 µM
